Like-named read-outs stand apart in the source and are kept apart here.
Assays:
in vitro = assay type: cell-based; conditions: mouse
Description: (§1) The viability of HEK-Blue^TM hTLR4, […], and THP-1 cells was evaluated using the Dojindo Cell Counting Kit-8 (CCK-8) according to the manufacturer’s instructions. The viability of HEK-Blue^TM hTLR4 and THP-1 cells was assessed under identical conditions to the corresponding assay treatments. HEK-Blue^TM hTLR4 cells (2 × 10^4 cells/well) were seeded in 96-well plates and serum-starved for 24 h at 37 °C in a 5% CO2 atmosphere. After incubation, the culture medium was aspirated, and the cells were washed with saline. High-glucose D-MEM supplemented with 0.1% FBS and 1% penicillin–streptomycin was added and pretreated with or without the 17 limonoids at a concentration of 20 µM for 1 h, followed by LPS addition at a concentration of 10 ng/mL. After 18 h of incubation, a 10% (v/v) CCK-8 solution was added to each well and incubated at 37 °C for 1 h, and cell viability was calculated.

IL-6 = assay: ELISA of IL-6 production in LPS-stimulated THP-1 cells; assay type: cell-based, human; conditions: for IC50: Homo sapiens, THP-1, 18 h, LPS-stimulated (10 ng/mL) THP-1 cells, 1, 5, 10, 20 µM, 18 h; for IL-6 SI (selectivity index, CC50/IC50): THP-1 CC50 / IL-6 IC50
Description: (§2) The logarithmic growth phase of THP-1 cells was achieved by seeding in 96-well plates at a density of 5 × 10^4 cells/well and differentiated for 24 h in the presence of PMA (0.5 μM solution in medium). After 24 h of incubation, the culture medium was removed from the 96-well plate and the cells were washed with PBS. […] The cells were pretreated with 17 limonoids at the corresponding concentration for 1 h, followed by the addition of LPS (10 ng/mL) and then incubation at 37 °C for 18 h. Finally, 50 μL of each culture supernatant solution was taken to determine the concentrations of IL-6, MCP-1, and IL-1β using the corresponding commercially available human ELISA kits following the manufacturer’s instructions. The analyte concentration in the supernatant was measured in pg/mL, and the inhibition level was expressed as a fold change compared to the LPS (−) control group. To determine the IC50 value, the dose-response data were normalized to the LPS-stimulated-only group, and the percentage of inhibition was calculated using the following formula: % Inhibition=(Absorbance of LPS+ control−Absorbance of compound treatment with LPS)/(Absorbance of LPS+ control−Absorbance of LPS− control)×100
(§3) Furthermore, the % inhibition data were interpolated into linear equations to determine the IC50 values.

phosphorylated-p38 MAPK = assay: Western blotting of phosphorylated-p38 MAPK in LPS-stimulated THP-1 cells; assay type: cell-based, human; conditions: 10 µM, LPS 10 ng/mL, 18 h, compared to LPS (+) group
Description: THP-1 cells were seeded at a density of 1 × 10^6 cells/well in 24-well plates. The cells were then pretreated with a concentration of 10 µM of compounds 3, 5, 9, or 15 for 1 h. Subsequently, LPS (10 ng/mL) was added to the cells, which were incubated for 18 h. The protein concentrations were determined using a bicinchoninic acid (BCA) assay kit.
For Western blot analysis, proteins were separated by SDS-PAGE and transferred onto a polyvinylidene fluoride (PVDF) membrane. The membranes were blocked with 2.5% BSA in Tris-buffered saline-Tween (TBST) for 1 h at room temperature. After three washes with TBST, the membranes were incubated with a diluted primary antibody solution (anti-phosphorylated-p38 MAPK or anti-p38 MAPK) at a 1:1000 dilution for 1 h at room temperature. After three washes with TBS-T, the membranes were incubated with a secondary antibody conjugated to horseradish peroxidase (HRP; 1:4000 dilution) for 30 min at room temperature and subsequently detected by chemiluminescence. Finally, the bands were visualized and quantified using an ImageQuant 800 GxP system (Cytiva, MA, USA). The results were expressed as ratios relative to the reference protein β-actin.

[1] = test system: TNF-α, IL-6, IL-1β, and MCP-1; assay: ELISA of pro-inflammatory markers overall (TNF-α, IL-6, IL-1β, MCP-1) in LPS-stimulated THP-1 cells; assay type: cell-based; conditions: Homo sapiens, read-out: Overall IC50 values for the evaluated pro-inflammatory markers
Description: (§4) The logarithmic growth phase of THP-1 cells was achieved by seeding in 96-well plates at a density of 5 × 10^4 cells/well and differentiated for 24 h in the presence of PMA (0.5 μM solution in medium). After 24 h of incubation, the culture medium was removed from the 96-well plate and the cells were washed with PBS. Fresh RPMI-1640 medium supplemented with 0.1% FBS and 1% Penicillin–Streptomycin was added to each well and incubated at 37 °C overnight. The cells were pretreated with 17 limonoids at the corresponding concentration for 1 h, followed by the addition of LPS (10 ng/mL) and then incubation at 37 °C for 18 h. Finally, 50 μL of each culture supernatant solution was taken to determine the concentrations of IL-6, MCP-1, and IL-1β using the corresponding commercially available human ELISA kits following the manufacturer’s instructions. The analyte concentration in the supernatant was measured in pg/mL, and the inhibition level was expressed as a fold change compared to the LPS (−) control group. To determine the IC50 value, the dose-response data were normalized to the LPS-stimulated-only group, and the percentage of inhibition was calculated using the following formula: % Inhibition=(Absorbance of LPS+ control−Absorbance of compound treatment with LPS)/(Absorbance of LPS+ control−Absorbance of LPS− control)×100
as §3

TNF-α = assay: ELISA of TNF-α production in LPS-stimulated THP-1 cells; assay type: cell-based, human; conditions: for IC50: LPS-stimulated (10 ng/mL) THP-1 cells, 1, 5, 10, 20 µM, 18 h, read-out: TNF-α IC50; for TNF-α SI (selectivity index, CC50/IC50): THP-1 CC50 / TNF-α IC50
[2] = Cell viability by CCK-8, THP-1 cells; assay type: cell-based; conditions: human, PMA-differentiated THP-1 cells; for CC50 at 18 h: concentration causing 50% cytotoxicity against THP-1 cells
Description: as §1
The THP-1 cells at 5 × 10^4 cells/well were differentiated for 24 h in the presence of PMA (0.5 μM solution in medium). After 24 h of incubation, the culture medium was removed from the 96-well plate and the cells were washed with PBS. Fresh RPMI-1640 medium supplemented with 0.1% FBS and 1% penicillin–streptomycin was added to each well and incubated at 37 °C for overnight. The cells were pretreated with 17 limonoids at the corresponding concentration for 1 h followed by the addition of LPS (10 ng/mL) and incubated at 37 °C for 18 h. Furthermore, CCK-8 solution was added to each well with a final concentration was 10% (v/v) and incubated at 37 °C. After 1 h, the absorbance of each well was measured at […] by using a microplate reader (BioTek Cytation 5 Cell Imaging Multimode Reader). Cell viability was calculated using the following formula: % Cell viability=(Absorbance of sample−Absorbance of Background)/(Absorbance of control−Absorbance of Background)×100 where the absorbance of the sample is the absorbance of cells treated by the compound with or without LPS, the absorbance of the control is the absorbance of LPS (−)-treated cells, and the background absorbance is the absorbance of a well containing only the medium. The results were expressed as 100% cell viability.

[3] = Cell viability by CCK-8, HEK-Blue hTLR4 cells; assay type: cell-based; conditions: human
Description: as §1

MCP-1 = assay: ELISA of MCP-1 production in LPS-stimulated THP-1 cells; assay type: cell-based, human; conditions: 10 µM, compared to LPS (+)-stimulated group, THP-1 cells
Description: as §2, §3

IL-1β = assay: ELISA of IL-1β production in LPS-stimulated THP-1 cells; assay type: cell-based, human; conditions: 10 µM, compared to LPS (+)-stimulated group
Description: as §4, §3

[4] = test system: TLR4-dependent NF-kB activation in HEK-Blue hTLR4 cells; assay: SEAP reporter gene assay, antagonist effect on LPS-stimulated TLR4-dependent NF-κB activation; assay type: cell-based, human; conditions: 20 µM, LPS 10 ng/mL, 18 h, vs. LPS stimulated-only group
Description: The SEAP Reporter Gene Assay was conducted as previously described. HEK-Blue^TM hTLR4 cells (2 × 10^4 cells/well) were seeded in 96-well plates and were serum-starved for 24 h at 37 °C in a 5% carbon dioxide atmosphere. After incubation, the culture medium was aspirated, and the cells were washed with saline. High-glucose D-MEM supplemented with 0.1% FBS and 1% penicillin-streptomycin was added and treated with or without the 17 limonoids at a concentration of 20 µM for 1 h, followed by LPS addition at a concentration of 10 ng/mL for the LPS-stimulated group. After incubation at 37 °C for 18 h, the supernatants were collected and PNPP in PBS solution (0.8 mM, 100 μL) was added, followed by 4 h of shading at 25 °C. The optical density (OD) of the samples was measured at 405 nm using a microplate reader (BioTek Cytation 5 Cell Imaging Multimode Reader, Agilent Technologies, Santa Clara, CA, USA).

[5] = LPS 10 ng/mL, read-out: Viability Cell (%) THP-1 LPS-Induced (10 ng/mL)
[6] = without LPS, read-out: Viability Cell (%) THP-1 Without LPS
[7] = Viability Cell (%) HEK-Blue hTLR4 LPS-Induced (10 ng/mL)
[8] = Viability Cell (%) HEK-Blue hTLR4 Without LPS
[9] = 10 µM, compared to LPS (+)-stimulated group, THP-1 cells

Structure (SMILES)	viability at 5 µM (in vitro) [%]	viability at 10 µM (in vitro) [%]	viability at 20 µM (in vitro) [%]	IC50 (IL-6) [µM]	Effect on p-p38 MAPK levels (phosphorylated-p38 MAPK)	IC50 [1] [µM]	IC50 (TNF-α; Homo sapiens, THP-1, 18 h) [µM]	TNF-α SI (selectivity index, CC50/IC50) (TNF-α)	viability at 18 h, 10 µM [2, 5] [%]	viability at 18 h, 10 µM [2, 6] [%]	CC50 at 18 h [2] [µM]	viability at 18 h, 20 µM [3, 7] [%]	viability at 18 h, 20 µM [3, 8] [%]	Effect on IL-6 level (IL-6; [9])	IL-6 SI (selectivity index, CC50/IC50) (IL-6)	Effect on MCP-1 level (MCP-1)	Effect on IL-1β level (IL-1β)	Effect on TNF-α level (TNF-α; [9])	IC50 (TNF-α) [µM]	Inhibition of SEAP release (NF-κB activity inhibition) [4]
CC(=O)O[C@H]1[C@@H](OC(C)=O)[C@]2(C)[C@H](CC[C@@]3(C)[C@H](c4ccoc4)C[C@H]4O[C@@]423)[C@@]2(C)C=CC(=O)C(C)(C)[C@H]12 [Compound 4, 6α-(acetoxy)-14β,15β-epoxyazadirone]	85 ± 5.66	85.9 ± 5.34	82.4 ± 1.15	1.64	significantly suppressed	< 20	5.6	6.78	> 99.9	> 99.9	38	> 99.9	> 99.9							
CC(=O)O[C@@H]1[C@H](O)[C@H]2C(C)(C)C(=O)C=C[C@]2(C)[C@H]2CC[C@]3(C)C(=CC[C@H]3c3ccoc3)[C@]12C [Compound 9, nimonol]	93.8 ± 1.86	89.9 ± 2.44	79.4 ± 10.2		significantly suppressed	< 20	< 3	49.92	83.9 ± 7.6	> 99.9	107	74.8 ± 6.22	> 99.9	significantly reduced	94.98	significantly reduced	significantly reduced	significantly reduced	2.15	
CC(=O)O[C@@H]1C[C@]2(C)C(=CC[C@H]2c2ccoc2)[C@@]2(C)[C@H]1[C@@]1(C)C=CC(=O)C(C)(C)[C@@H]1C[C@H]2OC(C)=O [Compound 11, 11α-acetoxyazadirone]	90.1 ± 7.88	79 ± 1.58	78.9 ± 2.21						> 99.9	> 99.9		9.84 ± 7.34	52.6 ± 4.74							significantly inhibited SEAP release
CC(=O)O[C@@H]1C[C@H]2C(C)(C)C(=O)C=C[C@]2(C)[C@H]2CC[C@@]3(C)[C@H](c4ccoc4)C[C@H]4O[C@]43[C@@]21C [Compound 13, trichilenone acetate]	> 99.9	> 99.9	91.9 ± 4.37						> 99.9	90.8 ± 3.23		> 99.9	92.4 ± 10.6							significantly inhibited SEAP release
CC(=O)O[C@@H]1C[C@H]2C(C)(C)C(=O)C=C[C@]2(C)[C@H]2CC[C@]3(C)C(=CC[C@H]3C3CCOC3=O)[C@@]21C (stereo partly shown) [Compound 15, pentandricine B]	92.8 ± 1.79	91.9 ± 3.59	90.9 ± 4.95	7.37	significantly suppressed	< 20	16.4	5.88	> 99.9	> 99.9	96.6	84.4 ± 18.7	> 99.9		13.11					
CC1(C)C(=O)C=C[C@]2(C)[C@H]3CC[C@]4(C)C(=CC[C@H]4C4CCOC4=O)[C@]3(C)[C@H](O)C[C@@H]12 (stereo partly shown) [Compound 16, pentandricine C]	91.8 ± 3.18	81.3 ± 7.05	89.4 ± 7.08	5.69	significantly suppressed	< 20			> 99.9	90.4 ± 7.6	110	> 99.9	> 99.9		19.40					
